Measurements published in US10799501B2, “Combination of an inhibitor of PARP with an inhibitor of GSK-3 or DOT1L” (King's College London, priority 2015, dated 2020).

Experiments:
THP1 (MLL-AF9) = experiment: Humanized xenograft: NSG mice transplanted with THP1 cells, Olaparib treatment; assay type: in vivo, mouse
Description: We established humanized models of AML1-ETO and PML-RARα leukemia in sub-lethally irradiated NOD/SCID/IL2Rg−/−(NSG, 1 dose 200 RADs) by transplanting 2×10^6 Kasumi (intra-femoral, IF) and 1×10^5 NB4-LR2 or 1×10^5 THP1 (intravenous, IV) cells. The day after the transplantation, mice were split into two groups and given intra-peritoneal injections of vehicle (10% HBC) or Olaparib (25 mg/kg in 10% HBC) daily for 2-4 weeks. The maximum tolerable dose was calculated by in vivo dose-response experiments. Mice were monitored daily until they developed symptoms of leukemia, when they were culled and bone marrow, spleen and liver harvested and analyzed by FACS. The engraftment of human donor cells was defined as human CD45/CD33 double positive by FACS.

MLL-AF9 LSC = experiment: C57Bl6 mice transplanted with pretreated MLL-AF9 LSC, PARPi and GSK3i treatment; assay type: in vivo, mouse
Description: For mouse MLL-AF9 LSC in vivo studies involving PARPi and GSK3i, MLL-AF9 LSC were pretreated in R20/20 with 4 mM LiCl or 1 uM Olaparib or combination for 3 days. Equal number 0.2×10^6 of live cells were transplanted into sublethally irradiated C57Bl6 mice. Continuous Olaparib and LiCO3 treatment was commenced on the day after irradiation and injection of cells. Mice were given 0.4% lithium carbonate containing diet (Harlan Laboratory) along with Olaparib by IP every other day for 4 weeks. The engraftment of mouse donor cells was defined as CD45.1+/CD45.2− by FACS.

[1] = system: PML-RARα transformed cells; experiment: In vitro drug treatment of primary murine hematopoietic cells transformed by PML-RARα (RTTA); assay type: cell-based, mouse
Description: Transduction using concentrated viral supernatant expressing the oncogene of interest was carried out by centrifugation (spinoculation) at 800 g at 32° C. for 2 hours in the presence of 5 μg ml^-1 polybrene (Sigma-Aldrich). Cells were subsequently plated in 1% methylcellulose medium ([…]; Stem Cell Technologies) containing 20 ngml^-1 SCF, 10 ngml^-1 IL-3, 10 ngml^-1 IL-6 and 10 ngml^-1 granulocyte macrophage colony-stimulating factor (GM-CSF) and appropriate selection antibiotic. Colonies were counted after 7 days of culture and replated every 6-7 days at 5×103-1.5×10^4 cell density. Re-plating was performed weekly to generate primary cell lines for further analysis. After the third or fourth round of plating, cells were cultured in R20/20 medium (RPMI 1640, 20% FCS, 20% WEHI-conditioned medium, 2 mM L-glutamine, 100 U/ml penicillin, and 100 μg/ml streptomycin) supplemented with 20 ngml^-1 stem cell factor (SCF), 10 ngml^-1 interleukin (IL)-3, and 10 ngml^-1 IL-6 to establish cell lines. All recombinant murine cytokines were from PeprotechEC. […] Colonies were scored 6-7 days after plating. For other in vitro studies, mouse leukemic cells and primary AML cell lines were subjected to continuously Olaparib (1 μM) or LiCl (8 mM) treatment in liquid culture for whole duration as indicated in the figures or figure legends. For human leukemic cell lines, experiments were performed as described above with 5 μM Olaparib. For each assay 1×10^5 cells were collected, washed in PBS and re-suspended in Annexin V binding solution (25 mM Hepes, 140 mM KCl, 2.5 mM CaCl2 pH 7.2). After centrifugation at 500 g for five minutes the cells were incubated with the Annexin V Binding solution containing 0.25 ug/ml mouse anti Annexin V-FITC antibody (Biolegend 640906) and 1 ug/ml propidium iodide in the dark for 30 minutes at 4° C. Samples were then washed in PBS analysed at the FACS LSRII (BD Biosciences Pharmingen) with FACS Diva. Cells were cytospun onto a glass slide at 400 g for 5 minutes and then fixed for 10 minutes with 2% formaldehyde/0.2% glutaraldehyde (Sigma Aldrich). Cells were then washed with PBS, and then incubated at 37° C. for at least 2 hours with a staining solution (30 mM Citric Acid/Phosphate buffer, 5 mM K4Fe(CN)6, 5 mM K3Fe(CN)6, 150 mM NaCl, 2 mM MgCl2, 1 mg/ml X-Gal) (All reagents from Sigma-Aldrich)62. Cells were counted in at least 5 fields for each slide, for a total of over 100 cells. The percentage of senescent cells was calculated by the percentage of the number of blue cell in the field. Cells were cytospun onto a glass slide at 400 g for 5 minutes and then fixed for 30 minutes in 4% PFA and permeabilized and blocked in 0.8% Tx-100, 10% FBS/1% BSA (Sigma-Aldrich) in PBS for 15 min at room temperature. Mouse anti mouse γH2AX ([…]) (Upstate clone JBW301#05-636) and rabbit anti mouse RAD51 (Santa Cruz Biotecnology […]# sc-8349) were diluted in TBS containing 10% FBS/1% BSA and incubated overnight at 4C. […] Slides were then washed five times at 10 min each with PBS. Slides were briefly washed in water and air-dried prior to mounting with Mowiol-DABCO and a coverslip. Cells were counted in at least 5 fields for each slide, for a total of over 100 cells per condition. 1×10^5 cells were cytospun for 5 min at 300 g onto glass slides. Slides were then stained with May-Grunwald solution (Sigma-Aldrich) for 3 min at room temperature. After washing in water, they were incubated for 20 min in Giemsa solution (Sigma-Aldrich) (1:20 in water). Slides were washed again in water before being mounted with Mowiol. Cells were counted in at least 5 fields for each slide, for a total of over 100 cells per condition. NBT reduction assay were performed to determine myeloid differentiation. 0.1% of NBT (final concentration) was added to the liquid culture or semi-solid methocult and incubated at 37° C. CO2 incubator for 3 hrs and 12 hrs, respectively. […]

[2] = NSG mice succumbed with THP1 driven disease, Olaparib 25 mg/kg i.p. daily
[3] = C57Bl6 mice, MLL-AF9 wild-type leukemia, cells pre-treated 3 days, then in vivo treatment 4 weeks

O=C(c1cc(Cc2n[nH]c(=O)c3ccccc23)ccc1F)N1CCN(C(=O)C2CC2)CC1 [Olaparib, 4-[(3-[(4-cyclopropylcarbonyl)piperazin-4-yl]carbonyl)-4-fluorophenyl]methyl(2H)-phthalazin-1-one]
BM Engraftment (%) (THP1 (MLL-AF9); [2]): 30.7 ± 33.27% | Disease Latency (days; median) (THP1 (MLL-AF9); [2]): 81 days | Hematopoietic Liver Engraftment (%) (THP1 (MLL-AF9); [2]): 27.81 ± 31.79% | Hematopoietic Spleen Engraftment (%) (THP1 (MLL-AF9); [2]): 8.53 ± 6.946% | Liver (THP1 (MLL-AF9); [2]): 1.31 ± 0.153 g | Spleen (THP1 (MLL-AF9); [2]): 0.0822 ± 0.0301 g | survival of xenograft model transplanted with human THP1 cells (THP1 (MLL-AF9); THP1 cells carrying MLL-AF9): no effect on the survival | BM Engraftment (%) (MLL-AF9 LSC; [3]): 80.23 ± 23.70% | Disease Latency (days; median) (MLL-AF9 LSC; [3]): 45.8 days | Hematopoietic Liver Engraftment (%) (MLL-AF9 LSC; [3]): 76.5 ± 19.21% | Hematopoietic Spleen Engraftment (%) (MLL-AF9 LSC; [3]): 65.07 ± 43.46% | Liver (MLL-AF9 LSC; [3]): 2.868 ± 0.4089 g | Spleen (MLL-AF9 LSC; [3]): 1.218 ± 0.3266 g | survival (MLL-AF9 LSC; pretreated MLL LSC in syngeneic mice, 80 days of observation, controls succumbed within 8 weeks): did not significantly extend the survival | suppression of colony forming ability ([1]; 1 uM Olaparib, methylcellulose 7 days, p<0.001): about 90% | apoptosis (Annexin V/PI) ([1]; PARPi 24 hrs and 48 hrs): induced apoptosis | senescence (β-galactosidase staining) ([1]; PARPi 24 hrs and 48 hrs): underwent significant senescence | Rad51 recruitment to DNA damage sites (RAD51 foci) ([1]; PARPi treatment for 6 hours): no significant Rad51 recruitment | percentage of differentiation (morphology and NBT reduction) ([1]; time course PARPi treatment): significantly increased the percentage of differentiation | cells with γH2AX and Rad51 foci ratio greater than 2 ([1]; upon PARPi treatment): around 80%
